B1: TRF2 (telomeric repeat-binding factor 2), subunit of recombinant shelterin (natural protein, UniProt Q15554-3 1-542, looked up)
chain: MAAGAGTAGPASGPGVVRDPAASQPRKRPGREGGEGARRSDTMAGGGGSSDGSGRAAGRRASRSSGRARRGRHEPGLGGPAERGAGEARLEEAVNRWVLKFYFHEALRAFRGSRYGDFRQIRDIMQALLVRPLGKEHTVSRLLRVMQCLSRIEEGENLDCSFDMEAELTPLESAINVLEMIKTEFTLTEAVVESSRKLVKEAAVIICIKNKEFEKASKILKKHMSKDPTTQKLRNDLLNIIREKNLAHPVIQNFSYETFQQKMLRFLESHLDDAEPYLLTMAKKALKSESAASSTGKEDKQPAPGPVEKPPREPARQLRNPPTTIGMMTLKAAFKTLSGAQDSEAAFAKLDQKDLVLPTQALPASPALKNKRPRKDENESSAPADGEGGSELQPKNKRMTISRLVLEEDSQSTEPSAGLNSSQEAASAPPSKPTVLNQPLPGEKNPKVPKGKWNSSNGVEEKETWVEEDELFQVQAAPDEDSTTNITKKQKWTVEESEWVKAGVQKYGEGNWAAISKNYPFVNRTAVMIKDRWRTMKRLGMN
notes: TRF2, gene NM_005652.4, codon-optimised
B2: TPP1, subunit of recombinant shelterin (natural protein, UniProt Q96AP0 1-458, looked up)
chain: MAGSGRLVLRPWIRELILGSETPSSPRAGQLLEVLQDAEAAVAGPSHAPDTSDVGATLLVSDGTHSVRCLVTREALDTSDWEEKEFGFRGTEGRLLLLQDCGVHVQVAEGGAPAEFYLQVDRFSLLPTEQPRLRVPGCNQDLDVQKKLYDCLEEHLSESTSSNAGLSLSQLLDEMREDQEHQGALVCLAESCLTLEGPCTAPPVTHWAASRCKATGEAVYTVPSSMLCISENDQLILSSLGPCQRTQGPELPPPDPALQDLSLTLIASPPSSPSSSGTPALPGHMSSEESGTSISLLPALSLAAPDPGQRSSSQPSPAICSAPATLTPRSPHASRTPSSPLQSCTPSLSPRSHVPSPHQALVTRPQKPSLEFKEFVGLPCKNRPPFPRTGATRGAQEPCSVWEPPKRHRDGSAFQYEYEPPCTSLCARVQAVRLPPQLMAWALHFLMDAQPGSEPTPM
notes: TPP1 (shelterin subunit), gene BC016904.1, codon-optimised
B3: POT1, subunit of recombinant shelterin (natural protein, UniProt Q9NUX5-1 1-634, looked up)
chain: MSLVPATNYIYTPLNQLKGGTIVNVYGVVKFFKPPYLSKGTDYCSVVTIVDQTNVKLTCLLFSGNYEALPIIYKNGDIVRFHRLKIQVYKKETQGITSSGFASLTFEGTLGAPIIPRTSSKYFNFTTEDHKMVEALRVWASTHMSPSWTLLKLCDVQPMQYFDLTCQLLGKAEVDGASFLLKVWDGTRTPFPSWRVLIQDLVLEGDLSHIHRLQNLTIDILVYDNHVHVARSLKVGSFLRIYSLHTKLQSMNSENQTMLSLEFHLHGGTSYGRGIRVLPESNSDVDQLKKDLESANLTANQHSDVICQSEPDDSFPSSGSVSLYEVERCQQLSATILTDHQYLERTPLCAILKQKAPQQYRIRAKLRSYKPRRLFQSVKLHCPKCHLLQEVPHEGDLDIIFQDGATKTPDVKLQNTSLYDSKIWTTKNQKGRKVAVHFVKNNGILPLSNECLLLIEGGTLSEICKLSNKFNSVIPVRSGHEDLELLDLSAPFLIQGTIHHYGCKQCSSLRSIQNLNSLVDKTSWIPSSVAEALGIVPLQYVFVMTFTLDDGTGVLEAYLMDSDKFFQIPASEVLMDDDLQKSVDMIMDMFCPPGIKIDAYPWLECFIKSYNVTNGTDNQICYQIFDTTVAEDVI
notes: POT1 (shelterin subunit), gene NM_015450, codon-optimised
B4: RAP1, subunit of recombinant shelterin (natural protein, UniProt Q9NYB0 1-399, looked up)
chain: MAEAMDLGKDPNGPTHSSTLFVRDDGSSMSFYVRPSPAKRRLSTLILHGGGTVCRVQEPGAVLLAQPGEALAEASGDFISTQYILDCVERNERLELEAYRLGPASAADTGSEAKPGALAEGAAEPEPQRHAGRIAFTDADDVAILTYVKENARSPSSVTGNALWKAMEKSSLTQHSWQSLKDRYLKHLRGQEHKYLLGDAPVSPSSQKLKRKAEEDPEAADSGEPQNKRTPDLPEEEYVKEEIQENEEAVKKMLVEATREFEEVVVDESPPDFEIHITMCDDDPPTPEEDSETQPDEEEEEEEEKVSQPEVGAAIKIIRQLMEKFNLDLSTVTQAFLKNSGELEATSAFLASGQRADGYPIWSRQDDIDLQKDDEDTREALVKKFGAQNVARRIEFRKK
notes: RAP1 (TRF2-associated shelterin subunit), gene NM_018975.3, codon-optimised

Experiments:
[1] = biological target: T1, TRF1TRFH (Homo sapiens, UniProt P54274); assay: Crystal soaking of TRF1TRFH crystals; details: soaking into TRF1TRFH crystals; Supplementary Table 1
T1 construct: encoding residues 47–268, UniProt identifier P54274-1; His6-MBP (TEV-cleavable) (N, cleaved yes); made in house; host or cells: E. coli BL21-CodonPlus(DE3)-RIL
T1 sequence (P54274 47-268): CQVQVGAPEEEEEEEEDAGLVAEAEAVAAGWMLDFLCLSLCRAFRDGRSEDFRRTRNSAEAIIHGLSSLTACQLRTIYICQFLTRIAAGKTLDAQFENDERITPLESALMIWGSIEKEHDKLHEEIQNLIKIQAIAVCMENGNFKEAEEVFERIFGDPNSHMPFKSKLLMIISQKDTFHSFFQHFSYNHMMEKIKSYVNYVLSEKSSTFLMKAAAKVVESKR
From the text: Attempts to soak TRF1TRFH crystals with the commercially available analogues of the XChem hit 5 were also unsuccessful. Only one slightly smaller analogue (22) could be soaked into TRF1TRFH crystals, albeit with an ambiguous binding mode. […] In the case of compound 5, we observed a hydrogen bond between the amino group of the fragment and a backbone carbonyl in the neighbouring protein chain (Fig. 2i). […] Additionally, the pocket normally occupied by the conserved phenylalanine residue of the TIN2 F-X-L-X-P motif was fully obstructed by a crystal contact with a TRF1TRFH copy in an adjacent asymmetric unit, further limiting the possibility of obtaining XChem hits outside of the leucine pocket.
TRF1TRFH crystals in the P3_121 space group were grown by sitting drop vapour diffusion in SWISSCI 3-drop plates using similar crystallisation conditions to those described previously. The total drop volume was 300 nL, consisting of 150 nL of TRF1TRFH (31.2 mg/mL) and 150 nL of reservoir solution (1% PEG8000, 100 mM MES pH 6.0, 1–12 mM Mg(OAc)2, 10–15% glycerol), whilst the reservoir volume was 35 µL. Crystallisation plates were set up using an SPT Labtech mosquito Xtal2 liquid handler. Cuboid-shaped crystals grew to their maximum size (300 μm across) within 24 h. Crystals were cryoprotected through the addition of 180 nL of 40% glycerol to the crystal drop prior to harvesting, giving a final glycerol concentration of […] (accounting for the glycerol already in the crystallisation conditions). The crystals were then flash-frozen in liquid nitrogen, and data were collected at the Diamond Light Source beamlines I04 and I04-1 and processed automatically using the Xia2 Dials pipeline[53],[54]. The TRF1TRFH structure was solved by molecular replacement in Phaser MR[55] within CCP4[56] using the previously published TRF1TRFH structure as a search model (PDB: 1H6O)[31], after having first stripped the search model of solvent molecules and ligands. Structure refinement was done using Refmac[57] and Buster[36], and model correction and building was done using Coot 0.9.6[35].
The DSi-Poised library (768 fragment, Enamine)[32], the EUbOPEN DSiP extension library (108 fragments) and the FragLite library (31 fragments)[33] were screened against TRF1TRFH crystals. Compounds at 500 mM in DMSO stocks were dispensed into selected crystal drops as singletons using an Echo 550 liquid handler to give a final concentration of 50 mM (10% DMSO final concentration). After incubation for 1 h at 20 °C, 180 nL of glycerol (40% stock, final drop concentration 28.8–32.5%) were added to each drop immediately prior to crystal harvesting and flash-freezing in liquid nitrogen.
Data were collected on the I04-1 beamline at Diamond Light Source. […]

[2] = Fragment solubility assay (quantitative 1H NMR); assay type: physicochemical; details: Supplementary Table 1
Method: Aqueous solubility test samples were prepared by adding 3.6 µL compound (50 mM stock in 100% DMSO-d6) to 176.4 µL NMR buffer in a microcentrifuge tube. The samples were incubated overnight and transferred to a 3-mm NMR tube (Bruker, Part No. Z112272). ^1H NMR spectra were recorded, with the DMSO and water signals dampened. 1 mM caffeine (Sigma, C1778 in PBS (pH 7.4) with 1% DMSO-d6) was used as a standard to quantify the ligand signals and determine the concentration of samples.
NMR data were collected on a Bruker Avance Neo 600-MHz spectrometer equipped with a 5 mm TCI-CryoProbe. The ^1H spectrum was referenced to the internal deuterated solvent. The operating frequency for ^1H was 600 MHz. All NMR data were acquired at the temperature of 298 K. All data were acquired and processed using Bruker Topspin 4.0. The quantitative ^1H-NMR spectrum was acquired using a Bruker standard 1D lc1pngppsf2 pulse sequence with 32 scans. The sweep width was 6.2 ppm with O1P set to 8.8 ppm, and the FID contained 16k time-domain data points. Relaxation delay was set to 20 s. Water signal was suppressed.

[3] = biological target: T1, TRF1TRFH; assay: LO-NMR CPMG assay (relaxation-edited), singletons; assay type: binding; details: single experiment
Method: We next used a LO-NMR CPMG assay to orthogonally validate XChem hits in solution, aiming to eliminate false positives and rank hit matter for follow-up studies. Compounds were tested as singletons and prepared in two samples containing either compound alone (sample 1) or compound + TRF1TRFH (sample 2).
The fragment screen by LO-NMR was carried out using conditions described previously, with some modifications. Fragments were dispensed in triplicate into a 384-well plate using an Echo 550 liquid handler to give a final ligand concentration of 250 µM (total sample volume of 40 µL). 40 µL of TRF1TRFH protein (in NMR buffer; 20 µM final protein concentration in the assay) were added to the ‘protein’ samples; 40 µL of TRF1TRFH protein and TIN2TBM peptide (21-mer, Ac-[…]-CONH2; 40 µM final concentration in the assay) were both added to the ‘competitor’ samples; 40 µL NMR buffer were added to the ‘compound-only’ samples. Solutions were transferred to 1.7-mm NMR tubes using a Bruker SamplePro Tube robotics system. ^1H NMR spectra were recorded on a Bruker AVIII 500 MHz spectrometer at 298 K, equipped with a 1.7-mm TXI probe, with samples in 1.7-mm SampleJET NMR tubes (Bruker). DMSO and water signals were dampened. A relaxation spin filter was applied at 400 ms. Data were processed using Bruker Topspin 4.0. Lines were broadened with LB = 3.0, and the baseline was corrected between 6.0 and 10.0 ppm.
The data were then analysed using the MNova Screen software. Only peaks between 5.5 and 9.5 ppm were considered. Peaks with a height of < 5% maximum peak height within the region of interest were considered noise, and the minimum matched peak level was set at > 51%. The relative peak intensity change (I) was calculated for all peaks in the 5.5–9.5 ppm region, for each compound, as described previously. The average integral for all peaks between 6.0 and 10.0 ppm was calculated, and the differences between compound-only, compound-plus-protein, and compound-plus-protein-plus-competitor samples were compared. The net recovery was calculated by subtracting the reduction in peak integral of the compound-plus-protein samples from the compound-plus-protein-plus-competitor samples.
For hit validation, relaxation-edited LO-NMR experiments were repeated as described above on single compounds instead of fragment cocktails.

[4] = biological target: T2, (StrepII)2-TEV-tagged TIN2, subunit of recombinant shelterin (UniProt Q9BSI4-1 1-451); assay: mass photometry; SEC-purified shelterin without compound; complex of around 700 kDa; 50 mM HEPES-NaOH pH 8.0, 300 mM NaCl; details: both partners purified
T2 construct: TIN2, gene NM_001099274.1, codon-optimised; a TEV site lies between tag and protein; The separately made control protein is called TIN2L; The discussion says that the complex carries a short peptidic tag on TIN2; source: Sf9, co-expressed with the other shelterin subunits (MultiBac baculovirus), purified (StrepTrap, serial SEC)
T2 sequence (looked up): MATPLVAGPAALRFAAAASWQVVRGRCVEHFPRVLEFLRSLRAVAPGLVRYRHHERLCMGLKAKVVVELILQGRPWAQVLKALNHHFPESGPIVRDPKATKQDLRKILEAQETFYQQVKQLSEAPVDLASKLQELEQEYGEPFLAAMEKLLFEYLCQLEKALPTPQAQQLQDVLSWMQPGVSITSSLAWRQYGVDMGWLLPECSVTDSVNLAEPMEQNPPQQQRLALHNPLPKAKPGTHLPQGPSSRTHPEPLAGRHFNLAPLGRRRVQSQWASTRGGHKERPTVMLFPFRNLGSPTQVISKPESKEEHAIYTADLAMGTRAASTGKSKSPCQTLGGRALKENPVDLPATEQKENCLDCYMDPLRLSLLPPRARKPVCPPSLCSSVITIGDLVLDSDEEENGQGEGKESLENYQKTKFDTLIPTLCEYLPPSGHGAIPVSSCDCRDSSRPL

| Molecule | stoichiometry N [4] | also measured |
| --- | --- | --- |
| COc1ccc2sc(N)nc2c1 [Compound 20] |  | Crystal structure [1]: Yes; Aq. Sol. [2]: 580 µM; CPMG reduction ([3]; average peak intensity reduction on addition of TRF1TRFH, 250 µM ligand, 20 µM protein): 25%; CPMG recovery ([3]; net recovery of peak intensity on addition of TIN2TBM peptide (40 µM) to compound plus protein): 0% |
| B1 | 4 TRF2 per TIN2 |  |
| B2 | 1 TPP1 per TIN2 |  |
| B3 | 1 POT1 per TIN2 |  |
| B4 | 4 RAP1 per TIN2 |  |

Source: PMC12635197, “Discovery of first-in-class inhibitors of the TRF1:TIN2 protein:protein interaction by fragment screening” (Scientific Reports, 2025)
